In patent US5776720A, “Assay reagent” (priority 1995, dated 1998):
Where a name gives a salt, the structure may show the parent alone.

What was measured:
[1] = system: lymphocytes; experiment: Normal leukocyte enzyme activity (Table 3A), lymphocytes; assay type: cell-based, human; parameters: unit not given here; conditions: normal donors
Description: (§1) The measured fluorescence intensity can be converted from mean channel fluorescence (in peak or integrated mode) to MESF (molecules of equivalent soluble fluorochrome, Flow Cytometry Standards Corp. , San Juan, Puerto Rico) or International Units of hydrolysis per cell. A normal range of enzyme activity is established by assaying males and females in sufficient quantity to characterize the population levels statistically.
(§2) A normal in house adult donor pool was drawn, recording sex and determining that no known disease state was present at the time of sample draw. Criteria for rejecting samples included patients under medication, patients with infection or inflammation of any type, colds and flu as well as any known medical illness such as cancer, heart ailment and high blood pressure. A donor list of 75 patients has been developed and a mean and 2 sd range established. A subgroup of "super normals" was developed from this list by examining the 75 patients to determine which group falls closest to the mean for all enzymes in all cell types tested. These patients were used as the "wellness index" or best group of "normalcy" patients. If a study required the use of children or newborns then this same format was used to develop a data base for these age groups.

[2] = system: granulocytes; experiment: Normal leukocyte enzyme activity (Table 3A), granulocytes; assay type: cell-based, human; parameters: unit not given here; conditions: normal donors
Description: as §1, §2

[3] = system: granulocyte; experiment: Peptidases to distinguish leukemia from non-leukemia (Table 6C), grans; assay type: cell-based, human
Description: Artificial intelligence was used to analyze data of cellular enzyme functions, and determine normal and disease states. Peptidases were used to distinguish leukemia from non-leukemia (output pattern). For input patterns lymphocyte and granulocyte cell types were used with aminopeptidases, cathepsins and dipeptidylpeptidase enzyme activities. In this Example, illustrated in Tables 6A-6C, three normals and three leukemia patients were used as known output patterns for the neural network to learn (in practice, the larger the learning set the more accurate unknown prediction will be). Unknowns were then presented to the learned algorithm as shown in the test case examples. Clinical diagnosis was confirmed by physicians. The trained neural network was able to correctly classify the leukemia from the non-leukemia.

[4] = system: monocytes; experiment: Normal leukocyte enzyme activity (Table 3A), monocytes; assay type: cell-based, human; parameters: unit not given here; conditions: normal donors
Description: as §1, §2

[5] = system: amino peptidase; experiment: immune competence, amino peptidase activity in Ficoll prepared lymphocytes (FIG. 4); assay type: cell-based; conditions: acute lympholytic Ficoll prepared lymphocytes, FIG. 4B
Description: The cell's ability to fight off an invader lies within its genetics and therefore cell type. The "readiness" however of any genetically capable group of cells to defend is different. A measure of this "readiness" is manifest in the available proteolytic enzymes contained within vacuoles or on the surface of the cell. The assay compound hydrolysis rate increases with increased mass of enzymes giving a picture of immune competence both in number of cells and activity level. […] Images were generated using Universal Imaging.

[6] = native free fluorescence; assay type: physicochemical
Description: Assays for peptidases using assay compounds generate fluorescence generally in the range of 10^-5 to 10^-6 Molar free rhodamine 110. Therefore, it is preferred that the free rhodamine 110 and blocked peptide impurities in the assay reagent should be removed to a concentration of less than the fluorescence generated by about 1×10^-6 M and more preferably less than the fluorescence generated by about 10^-7 Molar free indicator group. This amounts to a 100,000 photon count using rhodamine 110 as a standard at 10^-7 -10^-8 M, preferably 5×10^-8 M in a 1 cm path length cuvette when measured over 10 min. on a photon counting spectrofluorometer manufactured by the SLM Company of Chicago, Ill. This corresponds to a use level on the flow cytometer where no cellular false positive can be detected for a 10 minute period at the highest sensitivity setting. […] The presence of impurities causes a decrease in the storage stability of the compound, resulting in an increased autohydrolysis which leads to increased background fluorescence. A compound should be free of impurities such that when the compound (or reagent containing the compound) is stored at 4° C. for 30 days, preferably 90 days, more preferably 180 days, most preferably one year, the background fluorescence increases less than 10% , preferably less than 5% , most preferably less than 1% over these time periods, respectively. […]

[7] = autohydrolysis rate; assay type: physicochemical; conditions: 37° C., 1 cm path length
Protocol: A reaction run using the same data collection window without the enzyme source will determine auto-hydrolysis of the substrate and therefore the potential for negative cells to absorb the dye non-specifically resulting in false positive.
(§3) The acetate and tartrate salts thus prepared have the following characteristics, respectively: native free fluorescence, 63,000 and 61,000 photons; autohydrolysis rate when measured at 37° C. using a 1 cm path length, -5.56 and -3.8 change in photons per second; and enzymatic reaction rate of cathepsin B at 37° C., +128 and +138 change in photons per second.

[8] = system: cathepsin B; experiment: enzymatic reaction rate of cathepsin B; assay type: biochemical; conditions: 37° C.
Protocol: as §3

[9] = system: aminopeptidase; experiment: effect of calcium chloride on aminopeptidase reaction with (H-L-Asp)2 rhodamine 110; assay type: biochemical; conditions: approximately 10 mM
Description: The chemical nature of the buffer is important to the reactivity of the assay compound with the cellular enzymes. […] In addition, the assay compound hydrolysis by the enzyme occurs at an increased rate of reaction.

[10] = system: enzyme; experiment: modulator effect on sensitivity of substituted rhodamine 110 substrates; assay type: cell-based; conditions: 1 mM
Description: Modulators are components used to […] the sensitivity of the enzyme for the leaving group. The modulators speed up or slow down the activity of an enzyme by changing the active site. […] Preferred modulators for particular enzymes are included in Table 1.

[11] = system: dipeptide reagent; experiment: effect of added sodium chloride on dipeptide reagent; assay type: cell-based; conditions: addition of 7 mM, pH range 6.5 to 8.7
Description: Inhibitors and poisons (or toxins) are components that can be added to reduce the activity of non-targeted enzymes that provide competing reactions for the leaving group. Inhibitors are usually very selective for a particular enzyme. For example, EDTA only works with enzymes requiring Ca^+2, Mg^+2 and some other metals. […] Preferred inhibitors for particular enzymes are included in Table 1.

For `NCC(=O)Nc1ccc2c(c1)Oc1cc(NC(=O)CN)ccc1C21OC(=O)c2ccccc21` [GLY, (Gly)2 Rho 110], the “NORMAL LEUKOCYTE ENZYME ACTIVITY, LYMPHS Mean” value [1] was 18.18, the “NORMAL LEUKOCYTE ENZYME ACTIVITY, GRANS Mean” value [2] was 29.48 and the enzyme activity ([3]; N192 NORMAL) was 48.67.

For `CC(C)C[C@H](N)C(=O)Nc1ccc2c(c1)Oc1cc(NC(=O)[C@@H](N)CC(C)C)ccc1C21OC(=O)c2ccccc21` [LEU, (Leu)2 Rho 110], the “NORMAL LEUKOCYTE ENZYME ACTIVITY, LYMPHS Mean” value [1] was 34.94, the “NORMAL LEUKOCYTE ENZYME ACTIVITY, MONOS Mean” value [4] was 120.66 and the “NORMAL LEUKOCYTE ENZYME ACTIVITY, GRANS Mean” value [2] was 80.19. For the same compound, the amino peptidase activity [5] was “lost their enzymatic activity”.

In the case of `CC(C)C[C@H](N)C(=O)NCC(=O)Nc1ccc2c(c1)Oc1cc(NC(=O)CNC(=O)[C@@H](N)CC(C)C)ccc1C21OC(=O)c2ccccc21` [LG], the “NORMAL LEUKOCYTE ENZYME ACTIVITY, LYMPHS Mean” value [1] is reported as 13.83, the “NORMAL LEUKOCYTE ENZYME ACTIVITY, MONOS Mean” value [4] is reported as 44.56 and the “NORMAL LEUKOCYTE ENZYME ACTIVITY, GRANS Mean” value [2] is reported as 29.99. It also gave an enzyme activity ([3]; N193 NORMAL) of 3.55 and an enzyme activity ([3]; N199* NORMAL (later found to have cervical cancer)) of 2.02.

In the case of `NCCCC[C@H](N)C(=O)Nc1ccc2c(c1)Oc1cc(NC(=O)[C@@H](N)CCCCN)ccc1C21OC(=O)c2ccccc21` [LYS, (H--L--Lys)2 Rho 110.4TFA], the “NORMAL LEUKOCYTE ENZYME ACTIVITY, LYMPHS Mean” value [1] is reported as 1.16, the “NORMAL LEUKOCYTE ENZYME ACTIVITY, MONOS Mean” value [4] is reported as 7.56 and the “NORMAL LEUKOCYTE ENZYME ACTIVITY, GRANS Mean” value [2] is reported as 4.27. It also gave an enzyme activity ([3]; N194 NORMAL) of 1.66.

For `CC(C)C[C@H](N)C(=O)NCC(=O)Nc1ccc2c(c1)Oc1cc(NC(=O)CNC(=O)[C@@H](N)CC(C)C)ccc1C21OC(=O)c2ccccc21` [acetate, (H-LEU-GLY)2 Rhodamine 110 Acetate], the native free fluorescence [6] was 63,000 photons, the autohydrolysis rate [7] was -5.56 change in photons per second and the “enzymatic reaction rate of cathepsin B” value [8] was “+128 change in photons per second”.

With `[Ca+2].[Cl-].[Cl-]` [calcium chloride] the “effect on aminopeptidase reaction with (H-L-Asp)2 rhodamine 110” value [9] was “inhibitory to the enzyme reaction”.

In the case of `O[C@H](CS)[C@@H](O)CS` [dithioerythritol (DTE), dithioerythritol], the “effect on sensitivity of leaving group for enzyme” value ([10]; substrates with Ala-Gly and Leu-Gly) is reported as “does not change the sensitivity” and the “effect on sensitivity of rhodamine 110 substrates” value ([10]; substrates with Pro, Gly, Gln-Ser, Val-Lys-Val-Lys, Ala-Ala, Ala-Ala-Ala-Ala) is reported as “decreases the sensitivity”.

In the case of `[Cl-].[Na+]` [sodium chloride], the “effect on dipeptide reagent” value [11] is reported as “slightly inhibitory effect”.

With `CC(C)C[C@H](N)C(=O)NCC(=O)Nc1ccc2c(c1)Oc1cc(NC(=O)CNC(=O)[C@@H](N)CC(C)C)ccc1C21OC(=O)c2ccccc21` [tartrate, (H-LEU-GLY)2 Rhodamine 110 Tartrate] the autohydrolysis rate [7] was -3.8 change in photons per second and the “enzymatic reaction rate of cathepsin B” value [8] was “+138 change in photons per second”.
